Measured values: US20090215710A1, “CARBOHYDRATE BASED TOLL-LIKE RECEPTOR (TLR) ANTAGONISTS” (RELIANCE LIFE SCIENCES PVT. LTD., priority 2007, published 2009)

Experiments:
TLR2 = biological target: T1, TLR2 (Homo sapiens, UniProt O60603); assay: TLR2 ligand induced TNF-α secretion in THP-1 cells and PBMCs (ELISA); type: cell-based; details: TLR2 ligand 75 ng/ml, 1 hr pre-treatment, 24 hrs
T1 construct: endogenous in cells; host or cells: THP-1 monocytes and PBMCs
Experimental: (§1) The present invention has checked the effect of various TLR ligands on THP-1 monocytes, PBMCs and their ability to activate and release TNF-α. For this purpose about 9 TLR ligands were used. These ligands were obtained from Apotech Cat; APO-54N-018-K100 and assayed for TNF-α release in culture supernatants.
(§2) THP-1 and PBMCs (2×10^5 cells/well) were plated in 96-well plate. The cells were pretreated with RSCL-0409 in DMSO 1 hr prior to TLR ligand treatment. Following 1 hr pre-treatment, the cells were treated with TLR ligands [TLR2, TLR5 and TLR6-75 ng/ml each, TLR3-75 μg/ml, TLR4-750 ng/ml, TLR7, TLR8 and TLR9-7.5 μg/ml) for 24 hrs. The culture supernatant were collected after the stipulated time and assayed for TNF-α release using a Duoset Enzyme-Linked ImmunoSorbent Assay (ELISA) detection Kit (R&D systems, MN 55413, USA; Cat: DY-210 E). Simultaneously supernatants were collected from cells treated with ligands without pre-treatment with RSCL-0409 and only RSCL-0409 without ligand treatment.

TIRAP and MyD88 = assay: Protein levels of TIRAP and MyD88 in LPS stimulated THP-1 cells (immunoblot); type: cell-based, human; details: THP-1, LPS 250 ng/ml, 1 hr pre-treatment
Experimental: Further confirmation was obtained at the protein level. Serum-starved THP-1 cells were stimulated with LPS (250 ng/ml) for the indicated time in the presence and absence of RSCL-0409. RSCL-0409 treatment was 1 hr prior to LPS treatment. Immunoblotting of total protein was carried out as before to determine protein levels of TIRAP and MyD88.

Balb/c mice = assay: LPS induced TNF-α release in Balb/c mice, treatment post LPS; type: in vivo; details: 30 min post LPS (225 μg i.p.)
Experimental: Here we have stimulated the inflammation process in mice with an injection of LPS (225 μg) intraperitoneally and 30 min post LPS, we have challenged the ability of RSCL-0409 (10 mg/kg, 20 mg/kg) to inhibit the TNF-α secretion.

RAW264.7 cells = assay: LPS induced nitric oxide (NO) release in RAW 264.7 cells (Griess reaction); type: cell-based; details: RAW264.7, LPS 250 ng/ml
Experimental: RAW264.7 cells provide an excellent model for evaluations of potential inhibitors on the pathway leading the induction of iNOS and NO production. Nitric oxide production was determined in RAW264.7 cells from the National Center of Cell Science (NCCS, Pune) cultured in color-free DMEM with standard supplements by measuring the amount of nitrite from cell culture supernatant. RAW264.7 cells (5×10^4 per well) were stimulated for 24 hr with or without LPS (250 ng/ml) in the absence of presence of the RSCL-0409. Nitrite was then measured using the Griess reaction. 100 μl of cell culture supernatant was reacted with 100 μl of Griess reagent followed by spectrophotometric measurement at 550 nm. Nitrite concentrations in the supernatants were determined by comparison with a sodium nitrite standard curve. Alongside RSCL-0409 we also used known strong antioxidants (Vit C, Ascorbic acid, Catechin and Trolox) which inhibit NO to comparative antioxidant efficiency.

COX-2 pathway = assay: Arachadonic acid induced PGE2 release in A549 cells (EIA); type: cell-based, human
From the text: COX-2 is the key enzyme regulating the production of prostaglandins, which act as central mediators of inflammation. […] It is well documented COX-2 pathway inhibitors were regarded as promising nonsteroidal anti-inflammatory drugs (NSAIDs). So we decided to test the ability of RSCL-0409 to block the COX-2 pathway to substantiate our earlier mRNA observation. For that purpose, we chose A549 cells, a human lung cancer cell line where COX-2 is activated by AA in serum-free stimulation established by Yao et al for 12 hr. (Yao J C, Duan W G, Yun Y, Liu de Q, Yan M, Jiang Z Z, Zhang L Y. Screening method for nonsteroidal antiinflammatory drugs based on the cyclooxygenase 2 pathway activated by serum-free stimulation in A549 cells. Yakugaku Zasshi. 2007; 127: 527-32.) In order to determine the efficiency of our molecule, we have incorporated two known COX-2 NSAIDs-Piroxicam and Ibuprofen for comparison purposes. A549 cells (50×10^4 cells/well) in serum free medium were pretreated with different concentrations (10 μM, 5 μM, 2.5 μM, and 1.25 μM) of the NSAIDs and RSCL-0409 for 30 min. Then the cells were incubated with AA ([…]) for another 30 min. Prostaglandin E2 (PGE2), a metabolite of AA through the Cox pathway, was assayed in an enzyme immunoassay (EIA) kit from R&D systems.

TLR4 = biological target: T2, TLR4 (Homo sapiens, UniProt O00206); assay: TLR4 ligand induced TNF-α secretion in THP-1 cells and PBMCs (ELISA); type: cell-based; details: TLR4 ligand 750 ng/ml, 1 hr pre-treatment, 24 hrs
T2 construct: endogenous in cells; host or cells: THP-1 monocytes and PBMCs
Experimental: as §1, §2

[1] = system: TLR related genes (TIRAP, IRAK1, IRAK4, TRAF6, TRIF); assay: mRNA expression of TLR related genes in LPS stimulated THP-1 cells (PCR); type: cell-based, human; details: THP-1, LPS 250 ng/ml 1 hr
Experimental: Serum-starved THP-1 cells were stimulated with LPS (250 ng/ml) for 1 hr in the presence and absence of RSCL-0409. Total RNA was isolated from treated cells post LPS exposure. The cDNA was used for PCR against specific primers for the TLR related genes and β-actin was used as internal control.
To rule out the possibility of a TRIF dependent pathway, a MyD88 independent path, we have checked its expression levels also in the treated cells.

T1 sequence (O60603 21-784): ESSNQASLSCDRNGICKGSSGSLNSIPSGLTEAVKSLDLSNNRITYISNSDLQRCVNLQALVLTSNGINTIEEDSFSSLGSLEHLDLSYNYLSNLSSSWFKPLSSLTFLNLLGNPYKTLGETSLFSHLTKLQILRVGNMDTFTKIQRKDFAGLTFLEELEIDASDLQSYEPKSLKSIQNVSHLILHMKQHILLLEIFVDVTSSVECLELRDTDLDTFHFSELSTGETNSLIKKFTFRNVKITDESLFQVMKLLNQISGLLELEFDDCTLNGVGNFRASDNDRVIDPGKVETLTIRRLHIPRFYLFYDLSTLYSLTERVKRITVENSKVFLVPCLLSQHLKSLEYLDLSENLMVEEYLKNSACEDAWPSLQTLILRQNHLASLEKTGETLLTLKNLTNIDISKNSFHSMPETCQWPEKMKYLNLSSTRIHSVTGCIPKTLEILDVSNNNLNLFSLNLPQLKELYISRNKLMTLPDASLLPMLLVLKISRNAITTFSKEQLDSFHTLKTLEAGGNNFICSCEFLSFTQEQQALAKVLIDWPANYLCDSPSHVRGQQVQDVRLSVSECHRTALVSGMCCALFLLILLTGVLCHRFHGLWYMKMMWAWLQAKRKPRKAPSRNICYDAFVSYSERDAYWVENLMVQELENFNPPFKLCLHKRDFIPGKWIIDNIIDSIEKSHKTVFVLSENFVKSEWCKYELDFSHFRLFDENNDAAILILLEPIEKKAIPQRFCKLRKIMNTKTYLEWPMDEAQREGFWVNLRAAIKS
T2 sequence (O00206 24-839): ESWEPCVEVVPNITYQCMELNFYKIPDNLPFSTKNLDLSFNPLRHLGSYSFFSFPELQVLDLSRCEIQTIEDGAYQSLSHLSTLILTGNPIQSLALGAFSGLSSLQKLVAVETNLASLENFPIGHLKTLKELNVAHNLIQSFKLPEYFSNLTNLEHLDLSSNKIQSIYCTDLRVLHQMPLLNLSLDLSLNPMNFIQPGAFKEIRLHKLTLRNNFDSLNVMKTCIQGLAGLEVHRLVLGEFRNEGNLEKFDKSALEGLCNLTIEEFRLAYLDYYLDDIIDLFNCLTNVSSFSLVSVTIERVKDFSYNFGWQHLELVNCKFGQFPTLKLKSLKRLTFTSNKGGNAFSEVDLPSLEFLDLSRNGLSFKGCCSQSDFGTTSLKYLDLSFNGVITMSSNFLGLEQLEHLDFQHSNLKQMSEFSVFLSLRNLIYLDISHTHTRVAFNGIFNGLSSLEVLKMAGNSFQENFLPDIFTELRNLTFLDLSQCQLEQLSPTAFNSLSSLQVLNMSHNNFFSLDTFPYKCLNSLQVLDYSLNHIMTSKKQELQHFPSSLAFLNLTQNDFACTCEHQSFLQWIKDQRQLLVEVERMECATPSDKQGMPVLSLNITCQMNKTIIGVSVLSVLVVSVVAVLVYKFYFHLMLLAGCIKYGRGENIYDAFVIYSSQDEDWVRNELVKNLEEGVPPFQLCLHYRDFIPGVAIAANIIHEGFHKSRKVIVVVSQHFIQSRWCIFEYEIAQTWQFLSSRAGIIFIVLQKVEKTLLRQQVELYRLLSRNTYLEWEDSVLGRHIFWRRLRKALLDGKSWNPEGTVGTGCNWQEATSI
T2 sequence (Q9Y6Y9 17-160 partner limits assumed): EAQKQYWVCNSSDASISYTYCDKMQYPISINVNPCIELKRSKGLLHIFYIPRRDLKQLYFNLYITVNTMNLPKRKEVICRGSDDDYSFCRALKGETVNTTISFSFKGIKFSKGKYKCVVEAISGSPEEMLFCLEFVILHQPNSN

## COc1ccc(OC2OC3COC(c4ccccc4)OC3C(OC3OC(COC(=O)CCC(C)=O)C(OC(=O)CCl)C(OC(C)=O)C3OC(C)=O)C2NC(=O)C(Cl)(Cl)Cl)cc1 [RSCL-0409, p-Methoxy phenyl-O-(2,3-di-O-acetyl-4-O-chloroacetyl-6-O-levulinoyl-β-D-glucopyranosyl)-(1-3)-2-deoxy-2-trichloroacetamido-4,6-O-benzylidene-α-D-glucopyranoside]
TLR2; PBMC
  inhibition of TNF-α secretion: ~46%
TLR2; THP-1 cells
  inhibition of TNF-α secretion: ~54%
TIRAP and MyD88
  protein levels of TIRAP and MyD88: Down regulation of TIRAP and also MyD88 at protein levels
Balb/c mice; 10 mg/kg
  inhibition of TNF secretion: ~39%
Balb/c mice; 20 mg/kg
  inhibition of TNF secretion: ~47%
RAW264.7 cells
  anti-oxidant activity versus reference antioxidants (Vit C, Ascorbic acid, Catechin and Trolox): far more potent
RAW264.7 cells; 24 hr
  NO secretion induced by LPS: inhibited by RSCL-0409 in a concentration dependent manner
COX-2 pathway; A549 cells, 10, 5, 2.5 and 1.25 μM, AA induced
  PGE2 release: concentration dependent inhibition of PGE2 release
COX-2 pathway; A549 cells, AA induced
  concentration still effective on PGE2 release: 1.25 µM
COX-2 pathway; at all the concentrations used
  inhibition of PGE2 in comparison with the NSAIDs: better than Piroxicam
TLR4; PBMCs
  inhibition of TNF-α secretion: ~34%
TLR4; THP-1 cells
  inhibition of TNF-α secretion: ~100%
[1]
  TRIF mRNA levels: remained unaffected
  expression level of TRAF6: not down regulated significantly
  mRNA expression levels of TIRAP, IRAK1 and IRAK4: inhibits the mRNA expression levels of TIRAP, IL-1R-associated kinase1 (IRAK1) and IRAK4
